Measured values as given in patent US10294202B2, “Pyrrolidinones as herbicides” (FMC Corporation, priority 2013, dated 2019).

How the values were obtained:
barnyardgrass [1] = experiment: Test A pre-/postemergence herbicide test; format: in vivo, Echinochloa crus-galli
Summary of the method: (§1)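 Visual 0–100 ratings (100 = complete control) made about 10 days after treatment, greenhouse-held plants compared with untreated controls. Treatments: postemergence sprays on one- to two-leaf plants (2–10 cm tall) and preemergence directed soil sprays after planting in loam–sand, chemicals formulated in non-phytotoxic solvent containing surfactant.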

ryegrass, Italian = experiment: Test A pre-/postemergence herbicide test; format: in vivo, Lolium multiflorum
Summary of the method: as §1

corn = experiment: Test A pre-/postemergence herbicide test; format: in vivo, Zea mays; conditions: Postemergence
Summary of the method: as §1

pigweed = experiment: Test A pre-/postemergence herbicide test; format: in vivo, Amaranthus retroflexus
Summary of the method: as §1

sedge, umbrella = experiment: Test B flooded paddy test; format: in vivo, Cyperus difformis; conditions: 500 g ai/ha, Flood; scale of 0 to 100 where 0 is no effect and 100 is complete control
Summary of the method: (§2)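 Paddy-water application at a 3 cm flood, young plants having two leaves. Water level maintained; greenhouse, 13–15 days; visual 0–100 control rating.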

ducksalad = experiment: Test B flooded paddy test; format: in vivo, Heteranthera limosa; conditions: 500 g ai/ha, Flood; scale of 0 to 100 where 0 is no effect and 100 is complete control
Summary of the method: as §2

giant foxtail = experiment: Test A pre-/postemergence herbicide test; format: in vivo, Setaria faberii
Summary of the method: as §1

barnyardgrass [2] = experiment: Test B flooded paddy test; format: in vivo, Echinochloa crus-galli; conditions: 500 g ai/ha, Flood; scale of 0 to 100 where 0 is no effect and 100 is complete control
Summary of the method: as §2

rice = experiment: Test B flooded paddy test; format: in vivo, Oryza sativa; conditions: 500 g ai/ha, Flood; scale of 0 to 100 where 0 is no effect and 100 is complete control
Summary of the method: as §2

kochia = experiment: Test A pre-/postemergence herbicide test; format: in vivo, Kochia scoparia
Summary of the method: as §1

blackgrass = experiment: Test A postemergence herbicide test; format: in vivo, Alopecurus myosuroides
Summary of the method: (§3)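 Injury was rated visually about 10 days after treatment on a 0 (no effect) to 100 (complete control) scale, compared with untreated plants. Test chemicals were sprayed postemergence onto greenhouse plants 2–10 cm high at one to two leaves, grown in a loam–sand blend.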

wheat = experiment: Test A pre-/postemergence herbicide test; format: in vivo, Triticum aestivum; conditions: Postemergence
Summary of the method: as §1

ragweed = experiment: Test A pre-/postemergence herbicide test; format: in vivo, Ambrosia elatior
Summary of the method: as §1

galium = experiment: Test A postemergence herbicide test; format: in vivo, Galium aparine
Summary of the method: as §3

[3] = Postemergence, 125 g ai/ha, visual rating on 0 to 100 scale (0 no effect, 100 complete control), approx. 10 days
[4] = Postemergence, 500 g ai/ha, 0 to 100 scale (0 no effect, 100 complete control)
[5] = Preemergence, 125 g ai/ha, 0 to 100 scale where 0 is no effect and 100 is complete control
[6] = preemergence, 500 g ai/ha, 0 to 100 scale, 0 is no effect and 100 is complete control
[7] = Preemergence, 500 g ai/ha, visual rating on 0 to 100 scale (0 no effect, 100 complete control)
[8] = 125 g ai/ha, visual rating on 0 to 100 scale (0 no effect, 100 complete control), approx. 10 days
[9] = 500 g ai/ha, 0 to 100 scale (0 no effect, 100 complete control)

Row | Structure (SMILES) | Plant response rating, Barnyardgrass (barnyardgrass [1]; [3]) | Plant response rating, Barnyardgrass (barnyardgrass [1]; [4]) | Plant response rating, Barnyardgrass (barnyardgrass [1]; [5]) | Plant response rating, Ryegrass, Italian (ryegrass, Italian; [3]) | Plant response rating, Ryegrass, Italian (ryegrass, Italian; [4]) | Plant response rating, Ryegrass, Italian (ryegrass, Italian; [5]) | Ryegrass, Italian plant response rating (ryegrass, Italian; [7]) | Plant response rating, Corn (corn; [8]) | Plant response rating, Corn (corn; [9]) | Plant response rating, Pigweed (pigweed; [3]) | Plant response rating, Pigweed (pigweed; [4]) | Plant response rating, Pigweed (pigweed; [5]) | Plant response rating, Sedge, Umbrella (sedge, umbrella) | Plant response rating, Ducksalad (ducksalad) | Plant response rating, Foxtail, Giant (giant foxtail; [3]) | Plant response rating, Foxtail, Giant (giant foxtail; [4]) | Plant response rating, Foxtail, Giant (giant foxtail; [5]) | Plant response rating, Barnyardgrass (barnyardgrass [2]) | Plant response rating, Rice (rice) | Plant response rating, Kochia (kochia; [3]) | also measured
1 | O=C1NCC(c2cc3ccccc3s2)C1C(=O)Nc1ccccc1F (stereo not drawn) [Compound 295] | 0 | 50 | 0 | 0 | 0 | 0 | 0 | 0 | 0 | 0 | 0 | 0 | 0 | 40 | 0 | 0 | 0 | 30 | 0 | 0 | Plant response rating, Barnyardgrass (barnyardgrass [1]; [6]): 70; Plant response rating, Pigweed (pigweed; [6]): 0; Plant response rating, Foxtail, Giant (giant foxtail; [6]): 20; Plant response rating, Kochia (kochia; [4]): 0; Plant response rating, Kochia (kochia; [5]): 0; Plant response rating, Kochia (kochia; [6]): 0; Plant response rating, Blackgrass (blackgrass; [8]): 0; Plant response rating, Blackgrass (blackgrass; [9]): 0; Plant response rating, Wheat (wheat; [8]): 0; Plant response rating, Wheat (wheat; [9]): 0; Plant response rating, Ragweed (ragweed; [3]): 0; Plant response rating, Ragweed (ragweed; [4]): 0; Plant response rating, Ragweed (ragweed; [5]): 0; Plant response rating, Ragweed (ragweed; [6]): 0; Plant response rating, Galium (galium; [8]): 0; Plant response rating, Galium (galium; [9]): 10
2 | O=C1NCC(c2cccc(-n3ccc(C(F)(F)F)n3)c2)C1C(=O)Nc1ccccc1C(F)(F)F (stereo not drawn) [Compound 329] | 0 | 0 | 0 | 0 | 0 | 0 | 0 | 0 | 0 | 0 | 0 | 0 | 0 | 0 | 0 | 30 | 0 | 0 | 0 | 0 | Barnyardgrass plant response rating (barnyardgrass [1]; [7]): 0; Pigweed plant response rating (pigweed; [7]): 0; Foxtail, Giant plant response rating (giant foxtail; [7]): 60; Plant response rating, Kochia (kochia; [4]): 0; Plant response rating, Kochia (kochia; [5]): 0; Kochia plant response rating (kochia; [7]): 0; Plant response rating, Blackgrass (blackgrass; [8]): 0; Plant response rating, Blackgrass (blackgrass; [9]): 0; Plant response rating, Wheat (wheat; [8]): 0; Plant response rating, Wheat (wheat; [9]): 0; Plant response rating, Ragweed (ragweed; [3]): 0; Plant response rating, Ragweed (ragweed; [4]): 0; Plant response rating, Ragweed (ragweed; [5]): 0; Ragweed plant response rating (ragweed; [7]): 0; Plant response rating, Galium (galium; [8]): 0; Plant response rating, Galium (galium; [9]): 0
